Patent US20030224470A1, “Method of diagnosing statin myopathy” (priority 2002, published 2003)

How the values were obtained:
[1] = Clinical muscle symptoms during statin therapy; type: in vivo, patients
Excerpt: (§1) The association of increased levels of 3MGA with statin myopathy was discovered in a study of four patients identified among the first 20 patients randomly assigned in an ongoing, unfunded, doubleblinded, crossover clinical trial that had been approved by an investigational review board. Patients who had muscle symptoms during statin therapy that resolved when they were not receiving statins for 2 weeks were recruited from a clinical research group. Eligible patients had to have normal creatine kinase levels while they were experiencing symptoms. End points were 1) whether patients could accurately identify blinded statin therapy, 2) standard measures of functional capacity and muscle strength, 3) standard measures of biochemical properties of blood, urine and muscle specimens and 4) analysis of muscle biopsy for pathology. The muscular strength tests during both placebo use and statin therapy included hip abduction and flexion measured by Nicholas Manual Muscle Tester (Lafayette Instrument Co., Lafayette, Ind.) The standard measures for biochemical alterations included blood, urine and muscle biopsy analysis for levels of endogenous factors and drug. Analysis of muscle biopsy for pathology included general histology of the samples and detection of various markers involved in metabolism.

[2] = Muscle biopsy pathology (histology, metabolic markers); type: in vivo, patients; settings: Patient 3; during atorvastatin therapy
Excerpt: as §1, with “metabolism. […]” for “metabolism.”

[3] = Statin level in patients; type: in vivo
Excerpt: as §1
All four patients in the study had normal statin levels (TABLE 1).

[4] = Serum creatine kinase level during statin therapy; type: in vivo, patients; settings: normal range 0-3.26 μkat/L
Excerpt: as §1
The creatine kinase level remained normal in these patients every time they became myopathic both before and during the trial. The presence of a normal creatine kinase level has previously been used to argue against myopathy in patients with muscle symptoms during statin therapy.

[5] = Muscular strength tests: hip abduction and flexion, Nicholas Manual Muscle Tester; type: in vivo, patients
Excerpt: as §1

[6] = Urine organic acid analysis for 3-methylglutaconic acid (3MGA); type: in vivo, patients
[7] = Patient 2, lovastatin 40 mg/d, simvastatin added to niacin
[8] = Patient 1, 4 years of simvastatin therapy, brief trial of atorvastatin
[9] = Patient 4, atorvastatin 10 mg/d
[10] = Patient 3, Atorvastatin 20 mg/d
[11] = Patient 1, Cerivistatin 0.4 mg/d listed first

In the case of CC[C@H](C)C(=O)O[C@H]1C[C@@H](C)C=C2C=C[C@H](C)[C@H](CC[C@@H]3C[C@@H](O)CC(=O)O3)[C@H]21 [lovastatin], the “Muscle symptoms during therapy” value [1, 7] is reported as “muscle pains and weakness”.
For CC(C)c1c(C(=O)Nc2ccccc2)c(-c2ccccc2)c(-c2ccc(F)cc2)n1CC[C@@H](O)C[C@@H](O)CC(=O)O [Atorvastatin], the “Muscle symptoms during therapy” value [1, 8] was “Symptoms did not change”, the “Muscle symptoms during therapy” value ([1]; Patient 3, atorvastatin 20 mg/d for 2 years) was “aching and weakness of the shoulder, hip, and thigh” and the “Muscle symptoms during therapy” value [1, 9] was “leg aches when climbing stairs”. For the same molecule, the “Time to onset of leg aches” value [1, 9] was ≤ 2 weeks, the “Muscle biopsy findings during therapy” value [2] was “increased lipid droplets, ragged red fibers, and cytochrome oxidase—negative muscle fibers” and the “Statin Level” value [3, 10] was 10.9 (Ator- ngEq/cm^3. The “Creatine Kinase Level during Statin Therapy” value [4, 10] was 2.30 μkat/L, the “Creatine Kinase Level during Statin Therapy” value ([4]; Patient 4, Atorvastatin 10 mg/d) was 1.39 μkat/L and the “Hip Abduction (Strength) On Statin” value [5, 10] was 6.3 kg. For the same molecule, the “Hip Flexion (Strength) On Statin” value [5, 10] was 14.3 kg, the “Hip Abduction (Strength) On Statin” value [5, 9] was 12.9 kg and the “Hip Flexion (Strength) On Statin” value [5, 9] was 24.1 kg.
With CCC(C)(C)C(=O)O[C@H]1C[C@@H](C)C=C2C=C[C@H](C)[C@H](CC[C@@H]3C[C@@H](O)CC(=O)O3)[C@H]21 [Simvastatin] the “3-Methylglutaconic acid levels On Statin” value ([6]; Patient 2, Simvastatin 40 mg/d, normal range 0-9 mmol/mol creatinine) was 11 mmol/mol, the “Muscle symptoms during therapy” value [1, 8] was “muscle aches and decreased exercise tolerance” and the “Muscle symptoms during therapy” value [1, 7] was “muscle aches, weakness, and shortness of breath with exertion”. For the same molecule, the “Statin Level” value ([3]; Patient 1) was 1.4 (Sim- ngEq/cm^3, the “Statin Level” value ([3]; Patient 2, Simvastatin 40 mg/d) was 16.3 (Sim- ngEq/cm^3 and the “Creatine Kinase Level during Statin Therapy” value ([4]; Patient 2, Simvastatin 40 mg/d) was 0.73 μkat/L. The “Hip Abduction (Strength) On Statin” value ([5]; Patient 2, Simvastatin 40 mg/d) was 11.6 kg and the “Hip Flexion (Strength) On Statin” value ([5]; Patient 2, Simvastatin 40 mg/d) was 9.6 kg.
With COCc1c(C(C)C)nc(C(C)C)c(/C=C/[C@@H](O)C[C@@H](O)CC(=O)O)c1-c1ccc(F)cc1 [Cerivistatin] the “3-Methylglutaconic acid levels On Statin” value ([6]; Patient 1, normal range 0-9 mmol/mol creatinine) was 21 mmol/mol, the “Creatine Kinase Level during Statin Therapy” value ([4]; Patient 1) was 0.63 μkat/L and the “Hip Abduction (Strength) On Statin” value [5, 11] was 4.1 kg. For the same molecule, the “Hip Flexion (Strength) On Statin” value [5, 11] was 8.0 kg.
